Measurements from PubChem BioAssay (NCI).
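Assay format: 96-well plates, 48-hour exposure. GI50 = concentration required for 50% inhibition of growth. TGI denotes the concentration required for complete inhibition of growth.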

Key:
Assay in all cases: growth of human tumour cells (NCI), 48 h
CCRF-CEM leukemia = test system: CCRF-CEM leukemia
HCT-116 colon = test system: HCT-116 colon
M14 melanoma = test system: M14 melanoma
MDA-N = test system: MDA-N
MOLT-4 leukemia = test system: MOLT-4 leukemia
SK-MEL-28 melanoma = test system: SK-MEL-28 melanoma
SR leukemia = test system: SR leukemia
T-47D breast = test system: T-47D breast
U251 CNS = test system: U251 CNS
UO-31 renal = test system: UO-31 renal
NCI-H226 lung = test system: NCI-H226 lung

SMILES	TGI (CCRF-CEM leukemia)	TGI (HCT-116 colon)	TGI (M14 melanoma)	TGI (MDA-N)	TGI (MOLT-4 leukemia)	TGI (SK-MEL-28 melanoma)	TGI (SR leukemia)	TGI (T-47D breast)	TGI (U251 CNS)	TGI (UO-31 renal)	GI50 (CCRF-CEM leukemia)	GI50 (M14 melanoma)	GI50 (MOLT-4 leukemia)	GI50 (NCI-H226 lung)	TGI (NCI-H226 lung)	GI50 (SK-MEL-28 melanoma)	GI50 (U251 CNS)	GI50 (HCT-116 colon)	GI50 (SR leukemia)	GI50 (UO-31 renal)
CC(=O)OCC1OC(N2C(=O)CC(N)=Nc3ccccc32)C(OC(C)=O)C(OC(C)=O)C1OC(C)=O (stereo not drawn)	> 100 µM	> 100 µM	> 100 µM	> 100 µM	57.3 µM	> 100 µM	> 100 µM	82.2 µM	> 100 µM	> 100 µM										
Nc1nccc2c1ncn2C1C=C(CO)C(O)C1O (stereo not drawn)	> 1000 µM	> 85.8 µM	> 1000 µM		> 1000 µM	> 1000 µM			> 1000 µM		1910 nM	7.18 µM	768 nM	> 1000 µM	> 1000 µM	852 nM	1610 nM			
Cc1ccc(NC(=O)CC(=O)n2nc(-c3ccccc3)c(N=Nc3ccccc3C(=O)O)c2-c2ccccc2)cc1		> 100 µM			> 100 µM	> 100 µM	> 100 µM			> 100 µM					> 100 µM					
O=C1/C(=C/c2ccc3c(c2)OCO3)Sc2scc(-c3ccc(O)c(O)c3)[n+]21		6.29 µM	13.3 µM	9.81 µM	> 20.1 µM	> 100 µM		> 100 µM	37.9 µM	6.08 µM					> 100 µM					
Cc1cc(O)c2cc3c(O)c(O)ccc3cc2c1	22.6 µM		20 µM	8.86 µM	5.75 µM	> 58.8 µM	3.25 µM	6.28 µM	18.1 µM	2.22 µM					5.63 µM					
O=CN(O)CC(=O)O.[Ni]	> 100 µM	> 100 µM	> 100 µM	> 100 µM	> 100 µM	> 100 µM	> 100 µM	> 100 µM	> 100 µM	> 100 µM					> 100 µM					
OCCSCc1cc(Cl)cc(Cl)c1O	> 100 µM	> 100 µM	> 100 µM	> 100 µM	> 100 µM	> 100 µM		> 100 µM	> 100 µM	> 100 µM					> 100 µM					
NS(=O)(=O)c1ccc(N=Nc2ccc(O)c(O)c2)cc1	60 µM	26.2 µM	65.2 µM	> 100 µM	> 100 µM	37.2 µM	48 µM	> 100 µM	72.9 µM	26.4 µM					40.8 µM					
CC(=O)C1=C(C)N(c2ccc(C)cc2)C2(O)C=CC(=O)C3=C(O)c4ccccc4C(=O)C312 (stereo not drawn)		> 100 µM	> 100 µM		> 100 µM	34.5 µM	> 100 µM	> 100 µM	69.6 µM	34.8 µM					64.4 µM					
CC(C)(C)C(=O)CC(=O)C(F)(F)C(F)(F)C(F)(F)F.CC(C)(C)C(=O)CC(=O)C(F)(F)C(F)(F)C(F)(F)F.CC(C)(C)C(=O)CC(=O)C(F)(F)C(F)(F)C(F)(F)F.[Er]	> 100 µM	> 100 µM	> 100 µM	> 100 µM		> 100 µM	> 100 µM	> 100 µM	> 100 µM	> 100 µM					> 100 µM					
Cc1ccc([S+](c2ccccc2)c2cc(C)ccc2C)cc1 (stereo not drawn)	> 100 µM	> 100 µM	> 100 µM		> 100 µM		> 100 µM			> 100 µM										
O=CNNC(=O)CSc1nc2ccc(I)cc2c(=O)n1Cc1ccccc1	> 100 µM	49.5 µM	> 100 µM	> 100 µM	> 100 µM	> 100 µM	> 100 µM	> 100 µM	> 100 µM	3.93 µM					> 100 µM					
O=C1CC(NC2CC(=O)c3c(Br)sc(Br)c32)c2c(Br)sc(Br)c21 (stereo not drawn)	3.17 µM	6.46 µM	11.9 µM	5.82 µM	> 100 µM	> 55.4 µM		8.25 µM	3.36 µM	4.46 µM					34.1 µM					
COC[C@@H]1Cc2cc(OC)c3c(c2[C@H](c2ccc(OC)c(OC)c2)[C@H]1COC)OCO3	> 100 µM	> 100 µM	> 100 µM		> 100 µM	> 100 µM	> 100 µM		> 100 µM	> 100 µM										
O=NN(CCCl)C(=O)Nc1ccc(Cl)c(Cl)c1	> 100 µM	> 100 µM			> 100 µM	> 100 µM			> 100 µM	99.3 µM					> 100 µM					
O=S(=O)(c1ccccc1)[C@@H]1[C@H]2C=C[C@](CS)(O2)[C@H]1S(=O)(=O)c1ccccc1	8.33 µM	26 µM	> 100 µM	> 100 µM	43.6 µM	> 100 µM	> 100 µM	> 100 µM	> 100 µM	> 100 µM					> 100 µM					
COc1cc(CCC(=O)O)c2cc3ccccc3cc2c1O	13.8 µM	31 µM	42.6 µM	32.5 µM	21.9 µM	48.4 µM	33.1 µM	36.3 µM	29.9 µM	35.7 µM					78 µM					
O=[N+]([O-])c1ccc(/C=N/n2c(CCc3n[nH]c(=S)n3/N=C/c3ccc([N+](=O)[O-])o3)n[nH]c2=S)o1	67.7 µM	29 µM	36.1 µM	26.7 µM	63.9 µM	31.5 µM	80.7 µM	62.8 µM	50 µM	89.9 µM					> 100 µM					
O=C1CSc2sc(=S)sc2S1	> 100 µM	> 100 µM			> 100 µM	> 100 µM			> 100 µM	> 100 µM					> 100 µM					
Oc1ccc(NCc2cc(O)ccc2O)cc1		35.8 µM	33.9 µM	11.1 µM	7.81 µM	45.7 µM		52.1 µM	29.5 µM	29.4 µM					50.4 µM					
COc1cccc2c1C(=O)c1c(O)c3c(c(O)c1C2=O)C[C@@](O)(C(C)=O)C[C@@H]3OC1CC(N(C)C)C(O)C(C)O1 (stereo partly drawn)				0.00154 µM				0.00329 µM			29.1 nM	0.0437 µM	4.95 nM	0.00108 µM		47.5 nM	45.1 nM	2.25 nM	2.37 nM	56.1 nM
O=C1NC2(NC(=O)C1=O)Nc1ccccc1S2	66.3 µM	38.9 µM	> 100 µM		> 92.5 µM	> 100 µM	61.9 µM		> 82.5 µM	> 95.4 µM					> 100 µM					
CC(C)(C)OC(=O)N1CCCC1C(=O)NCCNc1ccc(NCCNC(=O)C2CCCN2C(=O)OC(C)(C)C)c2c1C(=O)c1ccccc1C2=O (stereo not drawn)	> 100 µM	26 µM	29.8 µM		> 100 µM	35.6 µM	> 100 µM		44.6 µM						46.6 µM					
